The subject of series [1] is human fibroblasts (FMM1). On the set-up: method as in PMID 20857004. To be noted: 50 µg/mL, 72 h treatment; cited from earlier work.
Series [2] relates to IEC-6 cells. Set-up: method as in PMID 20946968. To be noted: 84.8 µM, 24 h exposure; cited from earlier work.
The subject of series [3] is 10T1/2 cell line. On the set-up: method as in PMID 26828469. To be noted: same observation as in this study; cited from earlier work.
Series [4] relates to MCF7 cells. On the set-up: method as in PMID 22832309. Conditions: 48 h incubation, cited from earlier work.
The nature of series [5]: Cytotoxicity over four assays in both cell lines. The series is classed as cell-based. To be noted: mouse (Balb/c 3T3) and human (HepG2), Balb/c 3T3 clone A31 fibroblasts and HepG2 hepatoma cells, mostly greater than 50%, read-out: Viability of the cells at the highest concentrations used. On the procedure: Data obtained from the measurement of the optical density in these assays were transformed to percentages in relation to the control group, considered to be 100% for the MTT, NRU, and TPC assays and 0% for the LDH assay (Figure 1).
The human hepatoma cell line (HepG2) was purchased from the American Type Culture Collection (ATCC HB-8065). These cells were cultured in Minimum Essential Medium Eagle (MEME) (ATCC). The murine fibroblast cell line (Balb/c 3T3 clone A31) (gift from Department of Swine Diseases of the National Veterinary Research Institute in Pulawy) was cultured in Dulbecco’s Modified Eagle’s Medium (DMEM) (ATCC). The media were supplemented with 10% BCS (Balb/c 3T3), 10% FBS (HepG2), 1% L-glutamine, and 1% antibiotic solution. The cells were maintained in 75 cm^2 cell culture flasks (Nunc, Roskilde, Denmark) in a humidified incubator, NuAire (Plymouth, MN, USA) at 37 °C, in an atmosphere of 5% CO2. The medium was refreshed every two or three days and the cells were trypsinized by 0.25% trypsin–0.02% EDTA after reaching 70–80% confluence. […]
The concentration ranges of compounds were chosen according to their solubility and their plasma level. […] Cytotoxicity was assessed after 72 h of exposure of the cells to the compounds. […]
The results of the tests were expressed as a mean ± SD. […] The IC50 values were calculated by GraphPad Prism 5 software (San Diego, CA, USA). […]

Series [6] has as its system HeLa (cervical) cell line. Set-up: method as in PMID 18615197. To be noted: 72 h; cited from earlier work.
The test system of series [7] is MB157 (breast) cell line. On the set-up: method as in PMID 18615197. To be noted: 72 h; cited from earlier work.
The test system of series [8] is murine fibroblasts (L929). Set-up: method as in PMID 18364400. To be noted: 24 h exposure; read-out: IC50, L929, NRU assay; cited from earlier work.
The subject of series [9] is A549 (lung) cells. Conditions: 72 h exposure; cited from earlier work.
The test system of series [10] is HeLa cell lines. Set-up: method as in PMID 19836347. To be noted: cited from earlier work.
In series [11] the test system is H-ras 5RP7 cells. Conditions: 24 h exposure; cited from earlier work.
In series [12] the test system is NIH/3T3 cells. Conditions: 24 h exposure; cited from earlier work.
Series [13] deals with murine fibroblasts (L929). On the set-up: method as in PMID 18364400. To be noted: 24 h exposure; read-out: IC50, L929, MTT assay; cited from earlier work.
In series [14] the test system is OVCAR-3 (ovarian) cell line. Set-up: method as in PMID 18615197. Conditions: 72 h; cited from earlier work.

pIC50: −log10 of the molar value. Like-named read-outs stand apart in the source and are kept apart here.

In the case of `Cc1ncc([N+](=O)[O-])n1CCO` [Metronidazole], in series [1], the “Decrease of viability of human fibroblasts (FMM1)” value is 40%. Moreover, the “Inhibition of viability of IEC-6 cells” value in series [2] is listed as 8%. Moreover, in series [3], the “Cytotoxicity in 10T1/2 cell line” value is on record as “poorly cytotoxic”. Moreover, the “Inhibition of MCF7 cells” value in [4] (250 µM) is on record as 30%. In [4] (concentration range 2.5 to 250 µM), the “Cytotoxicity in MCF7 cells” value was “not cytotoxic”. Moreover, the viability at 72 h in series [5] is more than 50%.
For orientation: pIC50 means −log10 of the IC50, conventionally taken in molar units. For the compound `O=[N+]([O-])[O-].[Ag+]` [Silver nitrate], the pIC50 in series [6] is 4.30; in series [7] it was 5.30; in [8] it was 5.59; in series [9] it was 4.87; in series [10] it was 5.54; in [11] it was 5.17. Besides, the negative-log IC50 (pIC50) is 4.91 in series [12], 5.45 in series [13] and 4.46 in [14].
